Consider five molecules from patent US20220088130A1, “COMPOUNDS AND METHODS FOR TREATING LIVER DISEASES” (Eberhard Karls Universität Tübingen Medizinische Fakultät, priority 2019, published 2022).

Entries after “also recorded” stand apart in the source; their conditions may differ.

Data set [1] deals with α-SMA in M1-4HSC. Nature of the data set: α-SMA level in M1-4HSC treated with Aβ (Western blot). It is filed as cell-based. The note with it: 1000 pg/ml. An excerpt:
(§1) The data are shown as means±SEM, *p<0.05, ***p<0.001.
A general note: In western blotting, separated proteins are transferred to a membrane and probed.

Data set [2] relates to M1-4HSC lysates. Nature of the data set: Degradation of Aβ42 and Aβ40 by M1-4HSC lysates (ELISA). It is filed as in vitro ADME. The note with it: for Degradation by M1-4HSC lysates: 1000 pg/ml, normalized to control without cells.
In data set [3] the test system is TGF-β in M1-4HSC. Nature of the data set: TGF-β level in M1-4HSC treated with Aβ (Western blot, densitometry). Format: cell-based. The following applies: for Expression of TGF-β: Western blot; for Intensity of TGF-β bands (55 kDa, 44 kDa, 23 kDa) adjusted to GAPDH: densitometric calculations vs. untreated ctrl.
From the text: as §1

The subject of data set [4] is Col-1 in M1-4HSC. Nature of the data set: Col-1 production in M1-4HSC treated with Aβ (ELISA). It is filed as cell-based. The note with it: M1-4HSC culture.
Data set [5] has as its system zinc-dependent Aβ-degrading enzymes (ACE, ECE, NEP) in M1-4HSC lysates. Nature of the data set: Inhibition by EGTA of Aβ40/42 degradation in M1-4HSC lysates. The note with it: 5 mM EGTA; 30 and 60 minutes. Format: biochemical. The protocol: To quantify the Aβ42-degading ability of M1-4HSC lysate's, cell lysates from M1-4HSC (50,000 cells/ml) were obtained by 2 freezing thawing cycles at −80° C. and centrifugation for 10 min at 20,000 g.
To confirm that the disappearance of Aβ from HSC lysates reflects its enzymatic degradation rather than non-specific loss that can occur in cell lysates the activity of zinc-dependent AR-degrading enzymes comprising angiotensin converting enzyme (ACE) and endothelin converting enzyme (ECE) known to be present in HSC1 as well as NEP was blocked by 5 mM EGTA (white bars in FIG. 1D and FIG. 1E).

Data set [6] in a line: Loss of Aβ in cell culture medium without cells (control samples). Format: physicochemical. As for the experimental part:
(§2) Therefore, as a control for inherent decrease of amyloid concentrations control samples containing only culture medium, without cells (w/c) were incubated with Aβ for the same periods of time.

Data set [7] relates to eNOS in hSEC (human liver endothelial cells). Nature of the data set: eNOS synthesis by hSEC treated with Aβ (ELISA). It is filed as cell-based. The text has this:
Means±SEM, *p<0.05, **p<0.01, ***p<0.001.
In general terms: ELISA stands for enzyme-linked immunosorbent assay.

For data set [8], the system named is VEGF in liver sinusoidal endothelial cells. Description: VEGF expression in liver sinusoidal endothelial cells exposed to Aβ. It is filed as cell-based.
For data set [9], the system named is Primary murine HSC. Nature of the data set: Inhibition of Aβ40 and 42 degradation by HSC in response to sacubitrilat (ELISA of supernatant). It is filed as cell-based. The note with it: 48 h, with vs. without LBQ657. The protocol:
FIG. 9 (A-B) shown an inhibition of Aβ40 and 42 degradation by HSC in response to sacubitrilat (LBQ657). Primary murine HSC were incubated with 1000 pg/ml Aβ40 or 42 with and without LBQ657. The content of Aβ in the cell culture supernatant was measured by ELISA 48 h after incubation with Aβ40 or 42 with and without LBQ657.

The test system of data set [10] is LX-2. Description: Aβ42 uptake from culture medium by LX-2 (ELISA of supernatant). Format: cell-based, human. The following applies: 50,000-200,000 cells. The protocol:
(§3) After 24 h, supernatant was centrifuged at 1500 g for 15 minutes and frozen at −80° C. until analysis.

Data set [11] relates to astroglial primary cultures (APC). Nature of the data set: Aβ42 uptake from culture medium by astroglial primary cultures (ELISA of supernatant). It is filed as cell-based, mouse. The note with it: astrocytes (APC); 1000 pg/ml Aβ42 in medium; 48 h of incubation. As for the experimental part: Astroglia-rich primary cultures (APC) were prepared from newborn C57/BL6 (Charles River) mouse brains as described elsewhere (Lourhmati A, Buniatian G H, Paul C, et al. Age-dependent astroglial vulnerability to hypoxia and glutamate: the role for erythropoietin. PLoS One 2013; 8:e77182.). Briefly, the cells obtained from 5-7 brains of newborn littermates were mechanically dissociated, centrifuged and plated onto cell culture flasks (1×10^6 cells/75 cm2) in DMEM with 4.5 g/l Glucose supplemented with 10% foetal calf serum, 100 μg/ml streptomycin sulphate, 100 units/ml penicillin G and […] (Biochrom AG, Berlin, Germany) in a humidified 10% CO2 atmosphere at 37° C.
as §3, §2

Data set [12] deals with M1-4HSC. Description: Aβ42 uptake from culture medium by M1-4HSC (ELISA of supernatant). It is filed as cell-based. The protocol:
as §3, §2

Data set [13] relates to HSC-T6. Description: Aβ42 uptake from culture medium by HSC-T6 (ELISA of supernatant). Format: cell-based, rat. As for the experimental part:
as §3, §2

Setting [14] is: after 30 minutes of incubation with M1-4HSC lysates.

Turning to amyloid beta 40 [Aβ40], the “Expression of α-SMA” value in data set [1] was “reduced the expression”. In addition, the “Level compared to the initial level in control samples without cell lysates” value in [2] (setting [14]) is 50%; in [2] (after 60 minutes of incubation with M1-4HSC lysates), 25%. In addition, the “Degradation by M1-4HSC lysates” value in data set [2] (after 30 minutes) is listed as 50%; in data set [2] (after 60 minutes), 75%. In [3], the “Expression of TGF-β” value is “reduced the expression”. Besides, the “Intensity of TGF-β bands (55 kDa, 44 kDa, 23 kDa) adjusted to GAPDH” value in data set [3] is on record as “capable of decreasing only the 44 kDa band”. Also, in data set [4], the “Col-1 production (in words)” value is “only a slight reduction”.
On to `O=C(O)CN(CCOCCOCCN(CC(=O)O)CC(=O)O)CC(=O)O` [EGTA], for which the “Effect on degradation of Aβ40/42 by M1-4HSC lysates” value in data set [5] was “dramatically inhibited; also recorded: abolished the degradation”.
Take amyloid beta [Aβ]: the “Loss of Aβ after incubation with cell culture medium in the absence of cells” value in data set [6] (24-48 h, data not shown) is on record as “over 50%”. For the same molecule, in data set [7], the eNOS synthesis entry is reported as “increased synthesis of eNOS”. Also, the “Expression of liver permeability marker VEGF” value in data set [8] is given as “increase in expression”.
Regarding `C[C@H](C[C@@H](Cc1ccc(-c2ccccc2)cc1)NC(=O)CCC(=O)O)C(=O)O` [LBQ657, Sacubitrilat], the “Aβ40 degradation by HSC (content of Aβ in supernatant)” value in data set [9] (1000 pg/ml Aβ40) was “Decreased degradation of Aβ”. Moreover, the “Aβ42 degradation by HSC (content of Aβ in supernatant)” value in data set [9] (1000 pg/ml Aβ42) is reported as “Decreased degradation of Aβ”.
amyloid beta 42 [Aβ42]: in data set [6] (from 1000 pg/ml Aβ42 in culture medium, after 48 h of incubation), the “Peptide absorbed on plastic carrier” value is listed as “about 50%”. Further, in data set [10], the “Amount of Aβ42 internalized by LX-2” value was “grew with increasing number of cells in culture”. Further, the “Expression of α-SMA” value in data set [1] is given as “reduced the expression”. In addition, the “Level compared to the initial level in control samples without cell lysates” value in [2] (setting [14]) was found to be 50%. Also, the “Degradation by M1-4HSC lysates” value in data set [2] (after 30 minutes) stood at 50%. In addition, the “Aβ42 internalized by cells, of the remaining part available in culture medium” value in data set [11] came out at 28%. In addition, the “Uptake of Aβ42 vs. APC (decrease in cell culture supernatant)” value in [12] (M1-4HSC vs. APC, ELISA) is recorded as “two-fold higher uptake”. The “Aβ42 internalized by cells, of the remaining part available in culture medium” value in data set [12] (M1-4HSC, 1000 pg/ml Aβ42 in medium, 48 h of incubation) amounted to 55%. In addition, in [3], the “Suppression of TGF-β synthesis, Aβ42 compared with Aβ40” value is recorded as “more potent than Aβ40”; the “Expression of TGF-β” value was “reduced the expression”; the “Intensity of TGF-β bands (55 kDa, 44 kDa, 23 kDa) adjusted to GAPDH” value is “significantly decreased intensity”. The “Col-1 production (in words)” value in [4] was “suppression of Col-1 production”. Further, the eNOS synthesis entry in [7] is “upregulation of eNOS synthesis”. For the same molecule, the “Uptake of Aβ42 vs. APC (decrease in cell culture supernatant)” value in data set [13] is “two-fold higher uptake”.
